Source: ChEMBL document CHEMBL1201862, “PubChem BioAssay data set” (2004)
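Tested at 5 concentrations; 48 h exposure; 96-well plates; endpoints linearly interpolated, else capped at highest concentration. At the GI50, growth is halved.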 Activity calls are given as the source filed them. No stated cut-off is given here; in the data, active = GI50 up to about 1.1 µM and inactive = higher.

Columns and labels:
Assay in all cases: DTP human tumour cell line panel, 48 h
A498 = test system: A498
MDA-MB-231 = test system: MDA-MB-231
BT-549 = test system: BT-549
SF-539 = test system: SF-539
SK-MEL-28 = test system: SK-MEL-28
MCF7 = test system: MCF7
NCI-H460 = test system: NCI-H460
Hs-578T = test system: Hs-578T
MDA-N = test system: MDA-N
HL-60 = test system: HL-60
NCI-H226 = test system: NCI-H226
CAKI-1 = test system: CAKI-1
OVCAR-4 = test system: OVCAR-4
OVCAR-8 = test system: OVCAR-8
HOP-92 = test system: HOP-92
SF-268 = test system: SF-268
HT-29 = test system: HT-29
T47D = test system: T47D
HCT-116 = test system: HCT-116
Malme-3M = test system: Malme-3M
RXF 393 = test system: RXF 393
SK-MEL-2 = test system: SK-MEL-2
NCI-H23 = test system: NCI-H23
CCRF-CEM = test system: CCRF-CEM
EKVX = test system: EKVX
ACHN = test system: ACHN
HOP-62 = test system: HOP-62
SW-620 = test system: SW-620
SR = test system: SR
HCT-15 = test system: HCT-15
DU-145 = test system: DU-145
U-251 = test system: U-251
IGROV-1 = test system: IGROV-1
NCI/ADR-RES = test system: NCI/ADR-RES
LOX IMVI = test system: LOX IMVI
MDA-MB-435 = test system: MDA-MB-435
SNB-19 = test system: SNB-19
786-0 = test system: 786-0
KM12 = test system: KM12
OVCAR-3 = test system: OVCAR-3
SK-MEL-5 = test system: SK-MEL-5
UACC-257 = test system: UACC-257
SN12C = test system: SN12C
SF-295 = test system: SF-295
K562 = test system: K562
HCC 2998 = test system: HCC 2998
A549 = test system: A549
UO-31 = test system: UO-31
MOLT-4 = test system: MOLT-4
NCI-H522 = test system: NCI-H522
UACC-62 = test system: UACC-62
OVCAR-5 = test system: OVCAR-5
TK-10 = test system: TK-10
M14 = test system: M14
PC-3 = test system: PC-3
COLO 205 = test system: COLO 205
SNB-75 = test system: SNB-75
SK-OV-3 = test system: SK-OV-3
RPMI-8226 = test system: RPMI-8226

O=C(Cn1nc(Br)c(Br)c1Br)c1ccccc1
GI50 (A498): 35 µM (inactive)
GI50 (MDA-MB-231): 18.9 µM (inactive)
GI50 (BT-549): 20.2 µM (inactive)
GI50 (SF-539): 18.2 µM (inactive)
GI50 (SK-MEL-28): 37.2 µM (inactive)
GI50 (MCF7): 36.2 µM (inactive)
GI50 (NCI-H460): 23.8 µM (inactive)
GI50 (Hs-578T): 44.1 µM (inactive)
GI50 (MDA-N): 32.9 µM (inactive)
GI50 (HL-60): 10.9 µM (inactive)
GI50 (NCI-H226): 11.8 µM (inactive)
GI50 (CAKI-1): 26.7 µM (inactive)
GI50 (OVCAR-4): 36.1 µM (inactive)
GI50 (OVCAR-8): 34.5 µM (inactive)
GI50 (HOP-92): 20 µM (inactive)
GI50 (SF-268): 51.3 µM (inactive)
GI50 (HT-29): 22.2 µM (inactive)
GI50 (T47D): 24.5 µM (inactive)
GI50 (HCT-116): 18.1 µM (inactive)
GI50 (Malme-3M): 22 µM (inactive)
GI50 (RXF 393): 13.6 µM (inactive)
GI50 (SK-MEL-2): 20.7 µM (inactive)
GI50 (NCI-H23): 24.8 µM (inactive)
GI50 (CCRF-CEM): 5.97 µM (inactive)
GI50 (EKVX): 22.5 µM (inactive)
GI50 (ACHN): 27.3 µM (inactive)
GI50 (HOP-62): 37.2 µM (inactive)
GI50 (SW-620): 34 µM (inactive)
GI50 (SR): 0.152 µM (active)
GI50 (HCT-15): 31.6 µM
GI50 (DU-145): 38.5 µM (inactive)
GI50 (U-251): 34 µM (inactive)
GI50 (IGROV-1): 27.7 µM (inactive)
GI50 (NCI/ADR-RES): 30.1 µM (inactive)
GI50 (LOX IMVI): 16.4 µM (inactive)
GI50 (MDA-MB-435): 31 µM (inactive)
GI50 (SNB-19): 39.3 µM (inactive)
GI50 (786-0): 23.7 µM (inactive)
GI50 (KM12): 33.4 µM (inactive)
GI50 (OVCAR-3): 34.1 µM (inactive)
GI50 (SK-MEL-5): 18.1 µM (inactive)
GI50 (UACC-257): 20 µM (inactive)
GI50 (SN12C): 65.6 µM (inactive)
GI50 (SF-295): 29.1 µM (inactive)
GI50 (K562): 10.8 µM (inactive)
GI50 (HCC 2998): 36.6 µM (inactive)
GI50 (A549): 33.7 µM (inactive)
GI50 (UO-31): 18.2 µM (inactive)
GI50 (MOLT-4): 0.238 µM (active)
GI50 (NCI-H522): 26 µM (inactive)
GI50 (UACC-62): 20 µM (inactive)
GI50 (OVCAR-5): 40.7 µM (inactive)
GI50 (TK-10): 13.7 µM (inactive)
GI50 (M14): 26.7 µM (inactive)
GI50 (PC-3): 32.7 µM (inactive)
GI50 (COLO 205): 18.9 µM (inactive)
GI50 (SNB-75): 23.2 µM (inactive)
GI50 (SK-OV-3): 32.5 µM (inactive)

CCOC(=O)CCNC(=O)c1cc(C)cc2c1Oc1c(cc(C)cc1C(=O)NCCC(=O)OCC)S2
GI50 (A498): 27.2 µM (inactive)
GI50 (MDA-MB-231): 25.2 µM (inactive)
GI50 (BT-549): 68.7 µM (inactive)
GI50 (SF-539): 50.4 µM (inactive)
GI50 (SK-MEL-28): > 100 µM (inactive)
GI50 (MCF7): 57.1 µM (inactive)
GI50 (Hs-578T): 34 µM (inactive)
GI50 (MDA-N): 88.3 µM (inactive)
GI50 (HL-60): > 100 µM (inactive)
GI50 (NCI-H226): 81.7 µM (inactive)
GI50 (CAKI-1): 65.6 µM (inactive)
GI50 (OVCAR-4): > 100 µM (inactive)
GI50 (OVCAR-8): 78.3 µM (inactive)
GI50 (HOP-92): 19.5 µM (inactive)
GI50 (SF-268): 49.2 µM (inactive)
GI50 (HT-29): > 100 µM (inactive)
GI50 (T47D): 28.8 µM (inactive)
GI50 (HCT-116): 24.9 µM (inactive)
GI50 (Malme-3M): > 100 µM (inactive)
GI50 (RXF 393): 20.9 µM (inactive)
GI50 (SK-MEL-2): 90.8 µM (inactive)
GI50 (NCI-H23): > 100 µM (inactive)
GI50 (CCRF-CEM): > 100 µM (inactive)
GI50 (EKVX): > 100 µM (inactive)
GI50 (ACHN): > 100 µM (inactive)
GI50 (HOP-62): 56.4 µM (inactive)
GI50 (SW-620): > 100 µM (inactive)
GI50 (SR): > 100 µM (inactive)
GI50 (HCT-15): > 100 µM
GI50 (DU-145): > 100 µM (inactive)
GI50 (U-251): 62.5 µM (inactive)
GI50 (IGROV-1): > 100 µM (inactive)
GI50 (NCI/ADR-RES): 44.6 µM (inactive)
GI50 (LOX IMVI): 95.9 µM (inactive)
GI50 (MDA-MB-435): > 100 µM (inactive)
GI50 (SNB-19): 42 µM (inactive)
GI50 (786-0): 50 µM (inactive)
GI50 (RPMI-8226): > 100 µM (inactive)
GI50 (KM12): > 100 µM (inactive)
GI50 (OVCAR-3): > 100 µM (inactive)
GI50 (SK-MEL-5): 35.9 µM (inactive)
GI50 (UACC-257): 79.6 µM (inactive)
GI50 (SN12C): > 100 µM (inactive)
GI50 (SF-295): 53.5 µM (inactive)
GI50 (K562): > 100 µM (inactive)
GI50 (HCC 2998): > 100 µM (inactive)
GI50 (A549): 64 µM (inactive)
GI50 (UO-31): > 100 µM (inactive)
GI50 (MOLT-4): > 100 µM (inactive)
GI50 (NCI-H522): 40.6 µM (inactive)
GI50 (UACC-62): 38.5 µM (inactive)
GI50 (OVCAR-5): > 100 µM (inactive)
GI50 (TK-10): 42.3 µM (inactive)
GI50 (M14): > 100 µM (inactive)
GI50 (PC-3): > 100 µM (inactive)
GI50 (COLO 205): > 100 µM (inactive)
GI50 (SNB-75): 20.7 µM (inactive)
GI50 (SK-OV-3): > 100 µM (inactive)
